Experiments:
[1] = tested on: monocytes; test: Effect of enzyme inhibitors on peptide-induced monocyte chemotaxis; format: cell-based, human; conditions: FIG. 10; for inhibition of MFYLPM-induced chemotaxis: 1 μM MFYLPM
Method: (§1) Chemotaxis assays of the peptide were performed using multiwell chambers (Neuroprobe Inc., Gaithersburg, Md.) (20). Briefly, the prepared isolated human monocytes were suspended in RPMI at a concentration of 1×10^6 cells/ml of serum-free RPMI, and 25 □ of the suspension were placed onto the upper well of a 96-well chemotaxis chamber that was separated by a […] filter with a 5 □ pore size (3 □ diameter pores not coated with polyvinylpyrrolidone for neutrophils) from peptides or an fMLF-containing lower well. After incubation for 2 hours (90 minutes for neutrophils) at 37° C., non-migrated cells were removed by scraping them out, and cells that migrated across the filter were dehydrated, fixed, and stained with hematoxylin (Sigma, St. Louis, Mo.). The stained cells in five randomly chosen high power fields (HPF) (400×) in that well were then counted (21). The numbers of migrated cells were determined by counting them in a high power field (400×). For a checkboard analysis, cells were re-suspended in RPMI containing various concentrations of the peptide just before transferring them to the upper wells as described before (22).
Monocytes were pretreated either with LY (LY294002, 50 μM), GFX (GF109203X, 5 μM), or PD (PD98059, 50 μM), or they remained untreated for the control After an incubation of the indicated periods (15 minutes for LY294002 and GF109203X, 60 minutes for PD98059), the cells were washed twice and used for chemotaxis assay. 25 □ of monocytes at 1×10^6 cells/ml were added to the upper wells and allowed to migrate for 2 hrs at 37° C. (humidified atmosphere; 5% CO2) toward each peptide (1 μM HFYLPM, 1 μM MFYLPM, or 10 nM HFYLPm) or medium. After fixing and staining of the membrane, the numbers of migrated cells were determined by counting them in a high power field (400×). The results are shown FIG. 10. The data are presented as means ±S.E. of three independent experiments each performed in duplicate. *P<0.01 versus medium treatment and †P<0.01 versus peptide treatment, respectively.

[2] = tested on: monocytes; test: Effect of PTX on peptide-induced chemotactic migration in monocytes; format: cell-based, human; conditions: FIG. 8, PTX preincubation 90 minutes
Method: as §1
Several extracellular signals including many chemoattractants activate phagocytic cells via pertussis toxin (PTX)-sensitive G-protein(s) (27-29). Therefore, the involvement of PTX-sensitive G-protein(s) on the peptide-induced monocyte activation was examined. Monocytes were preincubated with PTX (1 □/ml) or vehicle only for 90 minutes at 37° C. The cells were used for chemotaxis assay with HFYLPM (1 μM), MFYLPM (1 μM), HFYLPm (100 nM), and fMLF (100 nM). The numbers of migrated cells were determined by counting them in a high power field (400×). The results are illustrated in FIG. 8. The data of FIG. 8 are presented as means±S.E. of two independent experiments each performed in duplicate. *P<0.01 versus medium treatment and †P<0.01 versus peptide treatment, respectively.

[3] = LY294002 50 μM, GF109203X 5 μM, PD98059 50 μM, 10 nM HFYLPm
[4] = LY294002 50 μM, GF109203X 5 μM, PD98059 50 μM

Compound	inhibition of HFYLPm-induced chemotaxis [1, 3]	inhibition of MFYLPM-induced chemotaxis [1, 4]	inhibition of HFYLPm-induced chemotaxis ([1]; PD98059 50 μM, 60 minutes pretreatment, 1 μM HFYLPM)	inhibition at 50 µM ([1]; Homo sapiens, Monocyte, LY294002 50 μM, GF109203X 5 μM, 15 minutes pretreatment, 1 μM HFYLPM) [%]	inhibition of HFYLPm-induced chemotaxis ([1]; LY294002 50 μM, GF109203X 5 μM, 15 minutes pretreatment, 1 μM HFYLPM) [%]	inhibition of HFYLPm-induced monocyte chemotaxis ([2]; HFYLPM 1 μM)	inhibition of HFYLPm-induced monocyte chemotaxis ([2]; HFYLPm 100 nM)	inhibition of MFYLPM-induced monocyte chemotaxis ([2]; MFYLPM 1 μM)	inhibition of fMLF-induced monocyte chemotaxis ([2]; fMLF 100 nM)
COc1cccc(-c2cc(=O)c3ccccc3o2)c1N [PD98059]	almost complete inhibition	almost complete inhibition	almost complete inhibition	–	–	–	–	–	–
O=c1cc(N2CCOCC2)oc2c(-c3ccccc3)cccc12 [LY294002]	no effect	no effect	–	~75	–	–	–	–	–
CN(C)CCCn1cc(C2=C(c3c[nH]c4ccccc34)C(=O)NC2=O)c2ccccc21 [GF109203X]	no effect	no effect	–	–	~50	–	–	–	–
pertussis toxin [PTX]	–	–	–	–	–	complete inhibition	complete inhibition	complete inhibition	completely blocked

— US7390870B2, “Immune-enhancing peptides” (Posco, priority 2001, dated 2008)
